Measurements published in patent US4483872A, “Non-classical topical treatment for glaucoma using n-substituted sulfonamides” (University of Iowa Research Foundation, priority 1983, dated 1984).

What was measured:
[1] = system: eye of normal adult white rabbits; test: IOP after topical drops of 1% solution, Examples 6 and 7; type: in vivo, rabbit; parameters: unit: mm Hg; conditions: 3 drops
Protocol: A 1% solution of 1-(N-hydroxy-N-methylsulfamido)-4-chlorobenzene and a 1% solution of 1-(N-hydroxy-N-methyl-sulfamido)-4-nitrobenzene were prepared for two separate experiments, examples 6 and 7 resepctively. The vehicle consisted of aqueous pH 7.2 phosphate buffer. One drop, followed by two drops each at one minute intervals, was applied to one eye of normal adult white rabbits. Six rabbits were used in example 6 and twelve rabbits in example 7. The treated eye was selected randomly, whereas, the fellow eye received placebo. The observer was masked. The intraocular pressure (IOP) was measured with a Digilab pneumotonometer, initially and every ten minutes for 180 minutes in each experiment following instillation of the anti-glaucoma agent. A drop of local anesthetic was applied to each eye just prior to making the measurement.

carbonic anhydrase = test: in vitro carbonic anhydrase activity, simplified method of Maren; type: biochemical
Protocol: The procedure required the use of a specialized glass reaction vessel to which was added 0.4 ml phenol red indicator (0.00125%), 0.25 to 0.30 ml heparinized blood containing 2 enzyme units of carbonic anhydrase, 0.1 ml drug solution (0.01 to 100 mg/L) and 0.1 ml of 0.255 M carbonate buffer. […] Water was added to the reaction vessel which was kept in a water bath at 0±0.25° C. The reaction cell was constantly purged with CO2 at a rate of 200 to 250 ml/min. Each reagent was added at a specified time and in a specified order. […] The time required for the reaction begins with the addition of carbonate buffer and was completed with the indicator changed from red to yellow. […] Reaction time was the time for the uncatalyzed reaction time. The reaction times remain constant once equilibration has been attained. By varying the time before adding the carbonate buffer and then determining the reaction time, the equilibration time can be accurately determined. The reaction time was averaged over three determinations. A range of drug concentrations were reacted and the concentration of drug causing 50% inhibition of enzyme (I50) read from a plot of reaction time against drug concentration. (If two enzyme units are added, then the concentration of drug yielding a reaction time corresponding to the activity of one unit is taken as the I50). An enzyme unit (e.u.) was calculated from: [formula]

[2] = system: eye of normal adult white rabbits; test: Salted rabbit test: intraocular pressure (IOP) after topical drops; type: in vivo
Protocol: In particular, an initial drop from the test formulation followed by two drops at one minute intervals are applid to one eye of each of six adult white rabbits that had been maintained on a diet containing 0.5% sodium. The treated eye was selected randomly, whereas, the fellow eye received placebo; the observer was masked. Results identified a small but significant reduction of intraocular pressure in the treated eye at 30, 60 and 120 minutes.
One drop, followed by two drops each at one minute intervals, was applied to one eye of normal adult white rabbits. Six rabbits were used in the experiment. The treated eye was selected randomly, whereas, the fellow eye received placebo. The observer was masked. The intraocular pressure (IOP) was measured with a Digilab Pneumotonometer, initially and every ten minutes for 120 minutes following instillation of the anti-glaucoma agent. A drop of local anesthetic was applied just prior to making the measurement.
IOP* Changes = (IOPDET - IOPCET) - (IOPDEO - IOPCEO)
IOPDET = measurement (mm Hg) of dosed eye at time t.
IOPDEO = measurement (mm Hg) of dosed eye at t = 0, but prior to
IOPDET = IOP measurement (mm Hg) of control (nondosed) eye at time t
IOPCEO = IOP measurement (mm Hg) of control eye at time t = 0
*Difference in IOP measurements (mm Hg) between both eyes just prior to
dosing at t = 0 (i.e., IOPDEO - IOPCEO).

## CN(O)S(=O)(=O)c1ccc(Cl)cc1 [1-(N-hydroxy-N-methylsulfamido)-4-chlorobenzene]
[1]; Example 6, 0 min
  IOP changes, Ave. change: 0.417
[1]; Example 6, 20 min
  IOP changes, Ave. change: 0.617
[1]; Example 6, 40 min
  IOP changes, Ave. change: 1.00
[1]; Example 6, 60 min, probability less than 0.025
  IOP changes, Ave. change: -1.25
[1]; Example 6, 80 min
  IOP changes, Ave. change: 0.167
[1]; Example 6, 100 min
  IOP changes, Ave. change: 0.667
[1]; Example 6, 120 min
  IOP changes, Ave. change: 0.333
[1]; Example 6, 140 min
  IOP changes, Ave. change: -.333
[1]; Example 6, 160 min
  IOP changes, Ave. change: -0.25
[1]; Example 6, 180 min
  IOP changes, Ave. change: -0.25

## CNS(=O)(=O)c1nnc(NC(C)=O)s1 [methyl acetazolamide, N-methyl-2-acetylamino-1,3,4-thiadiazole-5-sulfonamide]
Carbonic anhydrase; 2 enzyme units of carbonic anhydrase in heparinized blood, 0° C., averaged over three determinations
  averaged I50 (concentration of drug causing 50% inhibition of enzyme): 0.520 mg
Carbonic anhydrase; in vitro
  in vitro activity: inactive in vitro
Carbonic anhydrase; ratio 0.52/0.00914
  activity relative to acetazolamide (ratio of I50 values): 1/60
[2]; 0 min, just prior to dosing (baseline, IOPDEO - IOPCEO), six rabbits
  IOP difference between both eyes, Av. Chg.: 1.83 mm Hg
[2]; 1% w/v suspension, 3 drops, all time intervals to 120 min
  lowering of IOP, statistical significance: statistically significant at all time intervals
[2]; after topical administration
  reduction of intraocular pressure: able to reduce intraocular pressure

## CN(O)S(=O)(=O)c1ccc([N+](=O)[O-])cc1 [1-(N-hydroxy-N-methyl-sulfamido)-4-nitrobenzene]
[1]; Example 7, 0 min
  IOP changes, Ave. change: 0.167
[1]; Example 7, 10 min
  IOP changes, Ave. change: 0.333
[1]; Example 7, 20 min
  IOP changes, Ave. change: -0.333
[1]; Example 7, 30 min
  IOP changes, Ave. change: -.667
[1]; Example 7, 40 min, probability less than 0.05
  IOP changes, Ave. change: -1.67
[1]; Example 7, 50 min, probability less than 0.025
  IOP changes, Ave. change: -1.83
[1]; Example 7, 60 min, probability less than 0.025 (footnote)
  IOP changes, Ave. change: 1.67
[1]; Example 7, 70 min, probability less than 0.025
  IOP changes, Ave. change: -2.0
[1]; Example 7, 80 min, probability less than 0.05
  IOP changes, Ave. change: -1.167
[1]; Example 7, 90 min
  IOP changes, Ave. change: 0.2
[1]; Example 7, 100 min
  IOP changes, Ave. change: -0.5
[1]; Example 7, 110 min
  IOP changes, Ave. change: -0.33
[1]; Example 7, 120 min
  IOP changes, Ave. change: -1.00
